Reference: paper PMC10215302 (Antibiotics, 2023)
Like-named read-outs stand apart in the source and are kept apart here.

Key:
[1] = system: S. aureus SA0077; settings: for MIC values: Table S1: SA0077 Abf (passages on antibiotic-free media)
[2] = system: S. aureus SA0085; settings: for MIC values: Table S1: SA0085 Abf (passages on antibiotic-free media)
[3] = system: S. aureus SA0422
[4] = system: S. aureus SA0736
[5] = system: S. aureus ATCC 29213
[6] = system: S. aureus RN4220
[7] = system: S. aureus derivative strains; settings: for MIC: daptomycin-selected derivative strains without WalK mutations (all except SA0422), susceptible
[8] = SA0077, selecting agent DAP, passage 20
[9] = SA0077, selecting agent DAP, passage 40
[10] = SA0077, selecting agent VAN, passage 0
[11] = SA0077, selecting agent VAN, passage 5
[12] = SA0077, selecting agent VAN, passage 20
[13] = SA0077, selecting agent VAN, passage 40
[14] = SA0085, selecting agent DAP, passage 5
[15] = SA0085, selecting agent DAP, passage 40
[16] = SA0085, selecting agent VAN, passage 0
[17] = SA0085, selecting agent VAN, passage 5
[18] = SA0085, selecting agent VAN, passage 20
[19] = SA0085, selecting agent VAN, passage 40
[20] = SA0422, selecting agent DAP, passage 5
[21] = SA0422, selecting agent DAP, passage 20
[22] = SA0422, selecting agent DAP, passage 40
[23] = SA0422, selecting agent VAN, passage 0
[24] = SA0422, selecting agent VAN, passage 5
[25] = SA0422, selecting agent VAN, passage 20
[26] = SA0422, selecting agent VAN, passage 40
[27] = SA0736, selecting agent DAP, passage 5
[28] = SA0736, selecting agent DAP, passage 20
[29] = SA0736, selecting agent DAP, passage 40Y (yellow colonies)
[30] = SA0736, selecting agent VAN, passage 0
[31] = SA0736, selecting agent VAN, passage 5
[32] = SA0736, selecting agent VAN, passage 20
[33] = SA0736, selecting agent VAN, passage 40
[34] = Table S1: SA0736 DAP-W (40 passages on daptomycin, white colonies)
[35] = Table S1: SA0736 DAP-Y (40 passages on daptomycin, yellow colonies)
[36] = ATCC 29213, selecting agent DAP, passage 5
[37] = ATCC 29213, selecting agent DAP, passage 20
[38] = ATCC 29213, selecting agent DAP, passage 40
[39] = ATCC 29213, selecting agent VAN, passage 0
[40] = ATCC 29213, selecting agent VAN, passage 5
[41] = ATCC 29213, selecting agent VAN, passage 20
[42] = ATCC 29213, selecting agent VAN, passage 40
[43] = Table S1: RN4220 ∆ (strain with deletion in SACOL1927)
[44] = SA0085, selecting agent DAP, passage 20
[45] = SA0736, selecting agent DAP, passage 40W (white colonies)

dalbavancin
MIC ([1]; SA0077, selecting agent DAP, passage 5): <0.03 µg/mL | MIC [1, 8]: 0.125 µg/mL | MIC [1, 9]: 0.125 µg/mL | MIC [1, 10]: 0.03 µg/mL | MIC [1, 11]: 0.25 µg/mL | MIC [1, 12]: 1 µg/mL | MIC [1, 13]: 2 µg/mL | MIC values [1]: 0.03 µg/mL | MIC [2, 14]: <0.016 µg/mL | MIC [2, 15]: 0.125 µg/mL | MIC [2, 16]: <0.016 µg/mL | MIC [2, 17]: 0.06 µg/mL | MIC [2, 18]: 0.5 µg/mL | MIC [2, 19]: 0.25 µg/mL | MIC values [2]: 0.03 µg/mL | MIC [3, 20]: 0.06 µg/mL | MIC [3, 21]: 0.25 µg/mL | MIC [3, 22]: 0.25 µg/mL | MIC [3, 23]: 0.03 µg/mL | MIC [3, 24]: 0.125 µg/mL | MIC [3, 25]: 0.5 µg/mL | MIC [3, 26]: 1 µg/mL | MIC [4, 27]: 0.03 µg/mL | MIC [4, 28]: 0.25 µg/mL | MIC [4, 29]: 0.5 µg/mL | MIC [4, 30]: 0.03 µg/mL | MIC [4, 31]: 0.125 µg/mL | MIC [4, 32]: 1 µg/mL | MIC [4, 33]: 1 µg/mL | MIC values [4, 34]: 0.5 µg/mL | MIC values [4, 35]: 0.5 µg/mL | MIC [5, 36]: 0.03 µg/mL | MIC [5, 37]: 0.06 µg/mL | MIC [5, 38]: 0.125 µg/mL | MIC [5, 39]: <0.016 µg/mL | MIC [5, 40]: <0.016 µg/mL | MIC [5, 41]: <0.016 µg/mL | MIC [5, 42]: 2 µg/mL | MIC values ([6]; Table S1: RN4220 WT): 0.03 µg/mL | MIC values [6, 43]: 0.03 µg/mL | MIC [7]: ≤ 0.125 µg/mL

teicoplanin [TEC]
MIC [1, 8]: 0.25 µg/mL | MIC [1, 9]: 0.25 µg/mL | MIC [1, 10]: 0.25 µg/mL | MIC [1, 11]: 8 µg/mL | MIC [1, 12]: 8 µg/mL | MIC [1, 13]: 8 µg/mL | MIC values [1]: .125 µg/mL | MIC [2, 14]: 0.125 µg/mL | MIC [2, 44]: 8 µg/mL | MIC [2, 15]: 8 µg/mL | MIC [2, 16]: 0.125 µg/mL | MIC [2, 17]: 1 µg/mL | MIC [2, 18]: 2 µg/mL | MIC [2, 19]: 8 µg/mL | MIC values [2]: .125 µg/mL | MIC [3, 20]: 0.25 µg/mL | MIC [3, 21]: 1 µg/mL | MIC [3, 22]: 1 µg/mL | MIC [3, 23]: 0.5 µg/mL | MIC [3, 24]: 2 µg/mL | MIC [3, 25]: 4 µg/mL | MIC [3, 26]: 4 µg/mL | MIC [4, 27]: 0.25 µg/mL | MIC [4, 28]: 8 µg/mL | MIC [4, 45]: 8 µg/mL | MIC [4, 29]: 8 µg/mL | MIC [4, 30]: 0.25 µg/mL | MIC [4, 31]: 4 µg/mL | MIC [4, 33]: 8 µg/mL | MIC values [4, 34]: 8 µg/mL | MIC values [4, 35]: 8 µg/mL | MIC [5, 36]: 0.5 µg/mL | MIC [5, 37]: 2 µg/mL | MIC [5, 38]: 4 µg/mL | MIC [5, 39]: 0.06 µg/mL | MIC [5, 40]: 0.06 µg/mL | MIC [5, 41]: 2 µg/mL | MIC [5, 42]: 8 µg/mL | MIC values ([6]; Table S1: RN4220 WT): 0.25 µg/mL | MIC values [6, 43]: 0.25 µg/mL

telavancin [TLV]
MIC [1, 8]: 0.125 µg/mL | MIC [1, 9]: 0.125 µg/mL | MIC [1, 10]: 0.125 µg/mL | MIC [1, 11]: 0.06 µg/mL | MIC [1, 12]: 0.5 µg/mL | MIC [1, 13]: 1 µg/mL | MIC values [1]: 0.03 µg/mL | MIC [2, 14]: 0.06 µg/mL | MIC [2, 44]: 0.06 µg/mL | MIC [2, 15]: 0.25 µg/mL | MIC [2, 16]: 0.06 µg/mL | MIC [2, 17]: 0.06 µg/mL | MIC [2, 18]: 0.25 µg/mL | MIC [2, 19]: 0.25 µg/mL | MIC values [2]: 0.06 µg/mL | MIC [3, 20]: 0.125 µg/mL | MIC [3, 21]: 0.25 µg/mL | MIC [3, 22]: 0.25 µg/mL | MIC [3, 23]: 0.125 µg/mL | MIC [3, 24]: 0.25 µg/mL | MIC [3, 25]: 0.5 µg/mL | MIC [3, 26]: 1 µg/mL | MIC [4, 27]: 0.125 µg/mL | MIC [4, 28]: 0.125 µg/mL | MIC [4, 45]: 0.125 µg/mL | MIC [4, 29]: 0.125 µg/mL | MIC [4, 31]: 0.25 µg/mL | MIC [4, 32]: 0.5 µg/mL | MIC [4, 33]: 0.5 µg/mL | MIC values [4, 34]: .125 µg/mL | MIC values [4, 35]: .125 µg/mL | MIC [5, 36]: <0.03 µg/mL | MIC [5, 37]: 0.125 µg/mL | MIC [5, 38]: 0.25 µg/mL | MIC [5, 39]: <0.03 µg/mL | MIC [5, 40]: <0.03 µg/mL | MIC [5, 41]: 0.125 µg/mL | MIC [5, 42]: 0.5 µg/mL | MIC values ([6]; Table S1: RN4220 WT): 0.06 µg/mL | MIC values [6, 43]: 0.06 µg/mL | MIC [7]: ≤ 0.125 µg/mL | MIC by the end of daptomycin selection ([7]; derivatives, end of daptomycin selection): 0.125 to 0.25 µg/mL
